According to patent US20170333391A1, “METHOD FOR DELAYING THE ONSET OF PULMONARY FIBROSIS OR TREATING PULMONARY FIBROSIS” (EVERFRONT BIOTECH INC., priority 2016, published 2017):

Tests used:
type I collagen = assay: Type I collagen expression in TGF-β1-induced NHLF, western blotting (2-2); assay type: cell-based, human; conditions: TGF-β1-only control group = 1
Experimental: (§1) Normal Human lung fibroblasts (NHLF) were seeded into 6 cm culture dishes at a density of 2×10^5 cells/dish, comprising a control group and six experimental groups (7 dishes in total). The cells were cultured until the next day, and then the mediums were removed. Each group was respectively treated under the following conditions to conduct follow-up experiments: • (1) Positive control group: cells were cultured in a FGM-2 medium containing 1% serum and TGF-β1 (5 ng/ml) for 36 hours; • (2) Group I: cells were firstly cultured in a FGM-2 medium containing 1% serum and TGF-β1 (5 ng/ml) for 12 hours, and then compound (1) was added into the medium to provide a final concentration of 15 μg/ml; thereafter, the cells were cultured for another 24 hours; • (3) Group II: cells were firstly cultured in a FGM-2 medium containing 1% serum and TGF-β1 (5 ng/ml) for 12 hours, and then compound (1) was added into the medium to provide a final concentration of 25 μg/ml; thereafter, the cells were cultured for another 24 hours; • (4) Group III: cells were firstly cultured in a FGM-2 medium containing 1% serum and TGF-β1 (5 ng/ml) for 12 hours, and then compound (1) was added into the medium to provide a final concentration of 35 μg/ml; thereafter, the cells were cultured for another 24 hours; • (5) Group IV: cells were firstly cultured in a FGM-2 medium containing 1% serum and TGF-β1 (5 ng/ml) for 12 hours, and then the Pirfenidone was added into the medium to provide a final concentration of 100 μg/ml; thereafter, the cells were cultured for another 24 hours; • (6) Group V: cells were firstly cultured in a FGM-2 medium containing 1% serum and TGF-β1 (5 ng/ml) for 12 hours, and then the Pirfenidone was added into the medium to provide a final concentration of 250 μg/ml; thereafter, the cells were cultured for another 24 hours; and • (7) Group VI: cells were firstly cultured in a FGM-2 medium containing 1% serum and TGF-β1 (5 ng/ml) for 12 hours, and then the Pirfenidone was added into the medium to provide a final concentration of 500 μg/ml; thereafter, the cells were cultured for another 24 hours.
(§2) Thereafter, the proteins in the cells of each group were extracted, and the expressions of type I collagen, BMP-7 protein and TGF-β protein in the NHLF cells of each group were measured with western blotting. The results of the control group served as the basis for calculating the relative expression levels of the other groups.

BMP-7 protein [1] = assay: BMP-7 protein expression in TGF-β1-induced NHLF, western blotting (2-2); assay type: cell-based, human; conditions: TGF-β1-only control group = 1
Experimental: as §1, §2

TGF-β protein [2] = assay: TGF-β protein expression in TGF-β1-induced NHLF, western blotting (2-2); assay type: cell-based, human; conditions: TGF-β1-only control group = 1
Experimental: as §1, §2

BMP-7 protein [3] = assay: BMP-7 protein expression in TGF-β1-induced NHLF, western blotting (Example 4); assay type: cell-based, human; conditions: uninduced control = 1, TGF-β1-only group A = 0.19
Experimental: (§3) Normal Human lung fibroblasts (NHLF) were seeded into 6 cm culture dishes at a density of 2×10^5 cells/dish, comprising a control group and five experimental groups (6 dishes in total). The cells were cultured until the next day, and then the mediums were removed. Each group was respectively treated under the following conditions to conduct follow-up experiments: • (1) Control group: cells were cultured in a FGM-2 medium containing 1% serum for 36 hours; • (2) Group A: cells were cultured in a FGM-2 medium containing 1% serum and TGF-β1 (5 ng/ml) for 36 hours; • (3) Group B: cells were firstly cultured in a FGM-2 medium containing 1% serum and TGF-β1 (5 ng/ml) for 12 hours, and then compound (1) was added into the medium to provide a final concentration of 15 μg/ml; thereafter, the cells were cultured for another 24 hours; • (4) Group C: cells were firstly cultured in a FGM-2 medium containing 1% serum and TGF-β1 (5 ng/ml) for 12 hours, and then compound (1) was added into the medium to provide a final concentration of 30 μg/ml; thereafter, the cells were cultured for another 24 hours; • (5) Group D: cells were firstly cultured in a FGM-2 medium containing 1% serum and TGF-β1 (5 ng/ml) for 12 hours, and then compound (2) was added into the medium to provide a final concentration of 100 μg/ml; thereafter, the cells were cultured for another 24 hours; and • (6) Group E: cells were firstly cultured in a FGM-2 medium containing 1% serum and TGF-β1 (5 ng/ml) for 12 hours, and then compound (2) was added into the medium to provide a final concentration of 200 μg/ml; thereafter, the cells were cultured for another 24 hours.
as §2, with “of” for “of type I collagen,”, “BMP-7 protein, TGF-β” for “BMP-7”, “p-smad2/3” for “TGF-β”

TGF-β protein [4] = assay: TGF-β protein expression in TGF-β1-induced NHLF, western blotting (Example 4); assay type: cell-based, human; conditions: uninduced control = 1, TGF-β1-only group A = 1.75
Experimental: as §3
as §2, with “of” for “of type I collagen,”, “BMP-7 protein, TGF-β” for “BMP-7”, “p-smad2/3” for “TGF-β”

p-smad2/3 protein = p-smad2/3 protein expression in TGF-β1-induced NHLF, western blotting (Example 4); assay type: cell-based, human; conditions: uninduced control = 1, TGF-β1-only group A = 1.42
Experimental: as §3
as §2, with “of” for “of type I collagen,”, “BMP-7 protein, TGF-β” for “BMP-7”, “p-smad2/3” for “TGF-β”

[5] = system: Rat type II alveolar cell, L2 cell line; assay: Cell survival test (MTT analysis) under H2O2 oxidative stress; assay type: cell-based; conditions: 24 hours, control group = 100%
Experimental: The rat type II alveolar cell, L2 cell line (ATCC® CCL149™) were seeded into a 96-well plate at a density of 5×10^3 cells/well, 48 wells in total (separated into a control group and five experimental groups, 8 wells for each group). The cells were cultured until the next day, and then the mediums were removed. Each group was respectively treated under the following conditions to conduct follow-up experiments:
(1) Control group: cells were cultured in a F-12K medium (Kaighn's Modification of Ham's F-12 Medium, ATCC® 30-2004™) for 24 hours;
(2) Group 1: cells were cultured in a F-12K medium containing H2O2 (0.1 mM) for 24 hours;
(3) Group 2: cells were cultured in a F-12K medium containing H2O2 (0.1 mM) and compound (1) (5 μg/ml) for 24 hours;
(4) Group 3: cells were cultured in a F-12K medium containing H2O2 (0.1 mM) and N-acetylcysteine (NAC) (2 mM) for 24 hours;
(5) Group 4: cells were cultured in a F-12K medium containing H2O2 (0.2 mM) and compound (1) (5 μg/ml) for 24 hours; and
(6) Group 5: cells were cultured in a F-12K medium containing H2O2 (0.2 mM) and NAC (2 mM) for 24 hours.
The mediums were removed after culturing was complete, and then each group was respectively treated under the following conditions: F-12K mediums containing 10% of 3-(4,5-Dimethylthiazol-2-yl)-2,5-diphenyltetrazolium bromide (MTT) were added into each well, and cultured for 1 hour. Thereafter, the mediums were removed, and a suitable amount of dimethyl sulfoxide (DMSO) was added into the wells. An Enzyme-Linked ImmunoSorbent Assay reader (ELISA reader) was then used for detecting the absorbance of each group at a wavelength of 595 nm (OD595nm). The average value of each group was respectively calculated (n=8), and then the result of the control group served as the basis for calculating the relative survival rates of the other groups.

[6] = Group IV: TGF-β1 5 ng/ml 12 h, then Pirfenidone 100 μg/ml 24 h
[7] = Group V: TGF-β1 5 ng/ml 12 h, then Pirfenidone 250 μg/ml 24 h
[8] = Group VI: TGF-β1 5 ng/ml 12 h, then Pirfenidone 500 μg/ml 24 h
[9] = Group D: TGF-β1 5 ng/ml 12 h, then compound (2) 100 μg/ml 24 h
[10] = Group E: TGF-β1 5 ng/ml 12 h, then compound (2) 200 μg/ml 24 h

Cc1ccc(=O)n(-c2ccccc2)c1 [Pirfenidone, reference compound]
Relative expression level (fold) Type I collagen (type I collagen; [6]): 0.95 fold | Relative expression level (fold) Type I collagen (type I collagen; [7]): 0.57 fold | Relative expression level (fold) Type I collagen (type I collagen; [8]): 0.50 fold | Relative expression level (fold) BMP-7 protein (BMP-7 protein [1]; [6]): 1.52 fold | Relative expression level (fold) BMP-7 protein (BMP-7 protein [1]; [7]): 1.43 fold | Relative expression level (fold) BMP-7 protein (BMP-7 protein [1]; [8]): 1.34 fold | Relative expression level (fold) TGF-β protein (TGF-β protein [2]; [6]): 0.67 fold | Relative expression level (fold) TGF-β protein (TGF-β protein [2]; [7]): 0.64 fold | Relative expression level (fold) TGF-β protein (TGF-β protein [2]; [8]): 0.67 fold

CCCCC(=O)c1ccccc1C(=O)O [compound (2)]
Relative expression level (fold) BMP-7 protein (BMP-7 protein [3]; [9]): 0.11 fold | Relative expression level (fold) BMP-7 protein (BMP-7 protein [3]; [10]): 0.08 fold | Relative expression level (fold) TGF-β protein (TGF-β protein [4]; [9]): 0.46 fold | Relative expression level (fold) TGF-β protein (TGF-β protein [4]; [10]): 0.29 fold | Relative expression level (fold) p-smad2/3 protein (p-smad2/3 protein; [9]): 1.12 fold | Relative expression level (fold) p-smad2/3 protein (p-smad2/3 protein; [10]): 1.05 fold

CC(=O)N[C@@H](CS)C(=O)O [NAC, N-acetylcysteine, reference compound]
Relative survival rate ([5]; Group 3: H2O2 0.1 mM + NAC 2 mM, H2O2 0.1 mM alone = 38.9%): 101.9% | Relative survival rate ([5]; Group 5: H2O2 0.2 mM + NAC 2 mM): 83.1%
